The source of these data is US20090069373A1, “Quinoline Acids” (Wyeth, priority 2007, published 2009).

In one assay the target is T1, human LXRβ (Homo sapiens, UniProt P55055).
T1 construct: biotin (biotinylated; biotinylation tag not described); made in house; host or cells: E. coli
T1 sequence (P55055 1-460): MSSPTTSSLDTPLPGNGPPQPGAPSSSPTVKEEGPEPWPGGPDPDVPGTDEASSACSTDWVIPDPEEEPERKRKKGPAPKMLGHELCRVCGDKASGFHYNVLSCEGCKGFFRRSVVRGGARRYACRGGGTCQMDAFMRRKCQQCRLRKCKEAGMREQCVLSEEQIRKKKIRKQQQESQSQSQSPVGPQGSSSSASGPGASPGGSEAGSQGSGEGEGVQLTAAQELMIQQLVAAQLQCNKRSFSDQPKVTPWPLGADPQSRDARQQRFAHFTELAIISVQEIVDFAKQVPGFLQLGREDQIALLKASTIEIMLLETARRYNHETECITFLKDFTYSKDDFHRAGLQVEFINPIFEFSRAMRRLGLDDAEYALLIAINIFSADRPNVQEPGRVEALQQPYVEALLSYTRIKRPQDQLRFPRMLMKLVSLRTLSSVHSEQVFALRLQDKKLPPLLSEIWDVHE
In words: Ligand-binding test procedure for human LXRβ (3H T0901317 competition, flash plates). As to conditions: for Binding ratio a/b: IC50 (μM) LXRα binding/IC50 (μM) LXRβ binding; for IC50: biotinylated hLXRβ, tracer 3H T0901317.

The target in a further assay is T2, human LXRα (Homo sapiens, UniProt Q13133).
T2 construct: biotin (biotinylated; biotinylation tag not described); made in house; host or cells: E. coli
T2 sequence (Q13133 1-447): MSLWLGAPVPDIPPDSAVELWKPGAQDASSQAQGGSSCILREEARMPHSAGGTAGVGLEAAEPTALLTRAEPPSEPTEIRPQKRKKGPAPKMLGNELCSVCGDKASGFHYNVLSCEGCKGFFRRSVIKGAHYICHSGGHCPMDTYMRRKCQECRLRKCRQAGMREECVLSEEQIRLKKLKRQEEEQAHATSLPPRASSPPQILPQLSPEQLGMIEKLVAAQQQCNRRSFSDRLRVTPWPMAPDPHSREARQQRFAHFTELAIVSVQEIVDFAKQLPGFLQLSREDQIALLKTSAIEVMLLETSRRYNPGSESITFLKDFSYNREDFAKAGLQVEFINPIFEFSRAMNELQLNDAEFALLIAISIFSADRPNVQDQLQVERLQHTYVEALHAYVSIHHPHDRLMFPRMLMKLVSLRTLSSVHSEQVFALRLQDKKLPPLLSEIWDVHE
The experiment in a line: Ligand-binding test procedure for human LXRα (3H T0901317 competition, flash plates). As to conditions: biotinylated hLXRα, tracer 3H T0901317. A digest of the protocol: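 Competition binding of test ligands against 5 nM ³H tracer solution (pre-mix concentration) on biotinylated hLXRα from E. coli extract, captured on streptavidin flash plates (Bmax ~4000 cpm). Ligand dilution series made in DMSO. Incubated overnight at +4 °C; bound radioactivity counted after washing.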

A word on the IC50: it is the midpoint of a concentration-inhibition curve. Regarding `CSCC[C@H](NC(=O)c1cccc(COc2cccc(-c3c(Cc4ccccc4)cnc4c(C(F)(F)F)cccc34)c2)c1)C(=O)O` [Example 76, N-[3-({3-[3-benzyl-8-(trifluoromethyl)quinolin-4-yl]phenoxy}methyl)benzoyl]methionine], at human LXRβ, the Binding ratio a/b is 3 and the IC50 amounted to 318 nM. At human LXRα, this compound yielded a 50% inhibitory concentration (IC50) of 983 nM.
As for `O=C(O)c1cc2cccc(NCc3cccc(-c4c(Cc5ccccc5)cnc5c(C(F)(F)F)cccc45)c3)c2[nH]1` [Example 77, 7-({3-[3-benzyl-8-(trifluoromethyl)quinolin-4-yl]benzyl}amino)-1H-indole-2-carboxylic acid], the Binding ratio a/b at human LXRβ stood at 3. The IC50 stood at 408 nM on human LXRβ and 1250 nM at human LXRα.
For the compound `O=C(O)c1cc2ccccc2cc1NCc1cccc(-c2c(Cc3ccccc3)cnc3c(C(F)(F)F)cccc23)c1` [Example 78, 3-({3-[3-benzyl-8-(trifluoromethyl)quinolin-4-yl]benzyl}amino)-2-naphthoic acid], at human LXRβ, the Binding ratio a/b stood at 3 and the IC50 was 666 nM. At human LXRα, the IC50 amounted to 1990 nM.
For the compound `Cn1cc(C(=O)O)c2cc(NCc3cccc(-c4c(Cc5ccccc5)cnc5c(C(F)(F)F)cccc45)c3)ccc21` [Example 79, 5-({3-[3-benzyl-8-(trifluoromethyl)quinolin-4-yl]benzyl}amino)-1-methyl-1H-indole-3-carboxylic acid], on human LXRβ, the Binding ratio a/b was determined as 3 and the IC50 came out at 629 nM. For the same compound, at human LXRα, the IC50 is 1820 nM.
Regarding `Cc1cnc2c(C(F)(F)F)cccc2c1-c1cccc(CNc2cccc3c(C(=O)O)cccc23)c1` [Example 80, 5-({3-[3-methyl-8-(trifluoromethyl)quinolin-4-yl]benzyl}amino)-1-naphthoic acid], at human LXRβ, the Binding ratio a/b stood at 3 and the IC50 was 129 nM. Further, the IC50 at human LXRα came out at 374 nM.
As for `CC(C)C[C@H](NC(=O)c1ccc(COc2cccc(-c3c(Cc4ccccc4)cnc4c(C(F)(F)F)cccc34)c2)cc1)C(=O)O` [Example 81, N-[4-({3-[3-benzyl-8-(trifluoromethyl)quinolin-4-yl]phenoxy}methyl)benzoyl]leucine], at human LXRβ, the Binding ratio a/b turned out to be 3 and the IC50 was 236 nM. The compound further returned an IC50 at human LXRα of 654 nM.
`O=C(O)c1cc(NCc2cccc(-c3c(Cc4ccccc4)cnc4c(C(F)(F)F)cccc34)c2)ccc1Cl` [Example 82, 5-({3-[3-benzyl-8-(trifluoromethyl)quinolin-4-yl]benzyl}amino)-2-chlorobenzoic acid]: the Binding ratio a/b at human LXRβ came to 3. The IC50 is 523 nM at human LXRβ and 1450 nM on human LXRα.
As for `O=C(O)c1c[nH]c2c(NCc3cccc(-c4c(Cc5ccccc5)cnc5c(C(F)(F)F)cccc45)c3)cccc12` [Example 83, 7-({3-[3-benzyl-8-(trifluoromethyl)quinolin-4-yl]benzyl}amino)-1H-indole-3-carboxylic acid], at human LXRβ, the Binding ratio a/b was found to be 3 and the IC50 is 292 nM. At human LXRα, this compound showed an IC50 of 802 nM.
Consider `O=C(O)c1ccc(OCc2cccc(-c3c(Cc4ccccc4)cnc4c(C(F)(F)F)cccc34)c2)c(F)c1` [Example 84, 4-({3-[3-benzyl-8-(trifluoromethyl)quinolin-4-yl]benzyl}oxy)-3-fluorobenzoic acid], for which the Binding ratio a/b at human LXRβ is given as 3. For the same compound, the IC50 amounted to 319 nM at human LXRβ and 864 nM on human LXRα.
As to `O=C(O)c1ccc(OCc2cccc(-c3c(Cc4ccccc4)cnc4c(C(F)(F)F)cccc34)c2)c(Cl)c1` [Example 85, 4-({3-[3-benzyl-8-(trifluoromethyl)quinolin-4-yl]benzyl}oxy)-3-chlorobenzoic acid], on human LXRβ, the Binding ratio a/b came to 3 and the 50% inhibitory concentration (IC50) was 359 nM. The IC50 at human LXRα came to 966 nM.
Consider `O=C(O)Cc1cccc2ccc(OCc3cccc(-c4c(Cc5ccccc5)cnc5c(C(F)(F)F)cccc45)c3)cc12` [Example 86, [7-({3-[3-benzyl-8-(trifluoromethyl)quinolin-4-yl]benzyl}oxy)-1-naphthyl]acetic acid], for which, on human LXRβ, the Binding ratio a/b is 3 and the IC50 was found to be 374 nM. This compound also had an IC50 on human LXRα of 997 nM.
On to `O=C(O)c1ccc(NCc2cccc(-c3c(Cc4ccccc4)cnc4c(C(F)(F)F)cccc34)c2)cc1Cl` [Example 87, 4-({3-[3-benzyl-8-(trifluoromethyl)quinolin-4-yl]benzyl}amino)-2-chlorobenzoic acid], for which, on human LXRβ, the Binding ratio a/b worked out at 3 and the IC50 came to 28 nM. This compound yielded an IC50 on human LXRα of 72 nM.
Turning to `Cc1cc(CC(=O)O)cc(NCc2cccc(-c3c(C)cnc4c(C(F)(F)F)cccc34)c2)c1C` [Example 88, [3,4-dimethyl-5-({3-[3-methyl-8-(trifluoromethyl)quinolin-4-yl]benzyl}amino)phenyl]acetic acid], the Binding ratio a/b on human LXRβ is listed as 2. Further, the figures for the IC50 on human LXRβ and at human LXRα were 12700 nM and 31600 nM, respectively.
On to `O=C(O)c1c(F)cccc1OCc1cccc(-c2c(Cc3ccccc3)cnc3c(C(F)(F)F)cccc23)c1` [Example 89, 2-({3-[3-benzyl-8-(trifluoromethyl)quinolin-4-yl]benzyl}oxy)-6-fluorobenzoic acid], for which, on human LXRβ, the Binding ratio a/b is listed as 2 and the IC50 came out at 1600 nM. Besides, the IC50 on human LXRα worked out at 3980 nM.
`O=C(O)c1cccc(COc2cccc(-c3c(Cc4ccccc4)cnc4c(C(F)(F)F)cccc34)c2)c1` [Example 90, 3-({3-[3-benzyl-8-(trifluoromethyl)quinolin-4-yl]phenoxy}methyl)benzoic acid]: on human LXRβ, the Binding ratio a/b is listed as 2 and the IC50 is 358 nM. Moreover, the IC50 at human LXRα was 872 nM.
For `O=C(O)c1ccc(Cl)cc1NCc1cccc(-c2c(Cc3ccccc3)cnc3c(C(F)(F)F)cccc23)c1` [Example 91, 2-({3-[3-benzyl-8-(trifluoromethyl)quinolin-4-yl]benzyl}amino)-4-chlorobenzoic acid], in that order: 2, 477 nM and 1080 nM.
`O=C(O)c1ccc(F)c(OCc2cccc(-c3c(Cc4ccccc4)cnc4c(C(F)(F)F)cccc34)c2)c1` [Example 92, 3-({3-[3-benzyl-8-(trifluoromethyl)quinolin-4-yl]benzyl}oxy)-4-fluorobenzoic acid]: on human LXRβ, the Binding ratio a/b turned out to be 2. In addition, the IC50 came to 570 nM at human LXRβ and 1280 nM on human LXRα.
As for `Cc1cccc(NCc2cccc(-c3c(Cc4ccccc4)cnc4c(C(F)(F)F)cccc34)c2)c1C(=O)O` [Example 93, 2-({3-[3-benzyl-8-(trifluoromethyl)quinolin-4-yl]benzyl}amino)-6-methylbenzoic acid], at human LXRβ, the Binding ratio a/b turned out to be 2. The IC50 was 906 nM at human LXRβ and 2000 nM at human LXRα.
With `Cc1ccc(C(=O)O)cc1NCc1cccc(-c2c(Cc3ccccc3)cnc3c(C(F)(F)F)cccc23)c1` [Example 94, 3-({3-[3-benzyl-8-(trifluoromethyl)quinolin-4-yl]benzyl}amino)-4-methylbenzoic acid], on human LXRβ, the Binding ratio a/b is recorded as 2 and the IC50 stood at 1370 nM. The same compound came in with an IC50 at human LXRα of 3010 nM.
For `O=C(O)c1ccc2ccccc2c1OCc1cccc(-c2c(Cc3ccccc3)cnc3c(C(F)(F)F)cccc23)c1` [Example 95, 1-({3-[3-benzyl-8-(trifluoromethyl)quinolin-4-yl]benzyl}oxy)-2-naphthoic acid], in that order: 2, 1030 nM and 2220 nM.
Consider `CC(C)C[C@H](NC(=O)c1cccc(COc2cccc(-c3c(Cc4ccccc4)cnc4c(C(F)(F)F)cccc34)c2)c1)C(=O)O` [Example 96, N-[3-({3-[3-benzyl-8-(trifluoromethyl)quinolin-4-yl]phenoxy}methyl)benzoyl]leucine], for which, at human LXRβ, the Binding ratio a/b was found to be 2. Also, the IC50 on human LXRβ was 546 nM; at human LXRα, 1160 nM.
`O=C(O)c1ccccc1NCc1cccc(-c2c(Cc3ccccc3)cnc3c(C(F)(F)F)cccc23)c1` [Example 97, 2-({3-[3-benzyl-8-(trifluoromethyl)quinolin-4-yl]benzyl}amino)benzoic acid]: on human LXRβ, the Binding ratio a/b came out at 2 and the IC50 came to 237 nM. In addition, the IC50 at human LXRα worked out at 493 nM.
